Measured values as given in paper PMC6471062, “Suppression of the Ubiquitin Pathway by Small Molecule Binding to Ubiquitin Enhances Doxorubicin Sensitivity of the Cancer Cells” (Molecules, 2019).

Assays:
H1299 cells [1] = test: Luminogenic caspase activity assay (Caspase Glo 3/7), H1299; type: cell-based; details: 10 µM CR or 5 µM NSC697923 with Dox
Description: (§1) Figure 7 CR enhances Dox sensitivity of cancer cells. (a,b) Enhancement of Dox-induced apoptosis of cancer cells by CR treatment. Dox–induced apoptosis of H1299 (a) and HCT116 (b) was quantified by colorimetric cell viability after treating 10 µM CR for 12 h followed by 12h treatment of Dox (0.0–5.0 µM). […] Caspase activity was quantified by luminogenic caspase activity assay. […] All error bars represent the standard deviation from at least four independent experiments. Statistical significance was calculated by the Student’s t-test (** p < 0.01, *** p < 0.001).
Cell viability assays were performed as described previously. For the caspase assays, the media were removed, and cells were lysed in 200 µL lysis buffer containing 50 µL Caspase Glo 3/7 solution and incubated for 15 min. Results were observed by measuring the luminescence signal using KOMM-Nr (Berthold Technologies, Bad Wildbad, Germany) and normalized with the total protein concentration measured by the Bradford assay. […]
(§2) Figure S8. NSC697923 enhances Dox sensitivity of cancer cells. (a, b) Effect of NSC697923 to cancer cells’ viability in Dox treatment . Dox–induced cell death of H1299 ( a) and HCT116 ( b) was quantified by colorimetric cell viability assay after treating 5 µM NSC697923 for 12 h followed by 12h treatment of Dox (0.0 […]
NSC697923. Caspase activity was quantified by luminogenic caspase activity assay. […]

H1299 cells [2] = test: Dox-induced cell death, colorimetric cell viability, H1299; type: cell-based; details: 10 µM CR or 5 µM NSC697923 12 h, then Dox 1.25–5.0 μM 12 h
Description: as §1
(§3) Cell viability assays were performed as described previously. For the caspase assays, the media were removed, and cells were lysed in 200 µL lysis buffer containing 50 µL Caspase Glo 3/7 solution and incubated for 15 min. Results were observed by measuring the luminescence signal using KOMM-Nr (Berthold Technologies, Bad Wildbad, Germany) and normalized with the total protein concentration measured by the Bradford assay. Data were analyzed using GraphPad Prism version 6.0 for Windows with two tail t-test for statistical data analysis […]
as §2
NSC697923. Caspase activity was quantified by luminogenic caspase activity assay. All error bars represent the standard deviation from at least 4 independent experiments. *, P<0.05; **, P<0.01; ***, P<0.001.

H1299 cells [3] = test: Cytotoxicity, cell viability assay; type: cell-based
Description: as §3
Figure S7. Cytotoxicity of CR to cancer cells. H1299 cells were cultured in 96 -well plates. CR was added to final concentrations of 0.0 – 50.0 µM, and the cells were incubated for 24 h followed by cell viability assay. All error bars represent the standard deviation from at least 4 independent experiments. Statistical comparisons between groups were determined by Student’s t -test. If p -values are less than 0.05, they are statistically significant . NS, not […]
(1 picture or pasted object on this page, not shown here)

USP4 = test: TOP flash luciferase reporter assay of β-catenin with USP4; type: cell-based; details: HEK293T, CR 0–30 μM, 24 h
Description: Luciferase reporter assays were performed as described previously. Briefly, HEK293T cells were seeded in 12-well plates at 1 × 10^5 cells per well and incubated for 24 h before being transfected with either SRT-USP4 or Myc-β-catenin expression plasmids, along with the T cell factor (TCF) reporter plasmid (TOP flash) driving the expression of the luciferase gene. Equal amounts of total DNA in transfections were maintained by adding the control plasmids in each transfection experiment. 24 h post-transfection, cells were treated with CR (0–30 µM) for 24 h. After that, cells were harvested for luciferase reporter assays. Luciferase activity was measured according to the manufacturer’s instructions (Promega, Madison, WI, USA). page 5: (a) (b) Figure S5. CR inhibits USP4 deubiquitinase activity on its substrate, ß-catenin on the TOP flash reporter activity. (a) Cells were co-transfected with either SRT-USP4 or Myc‐β‐catenin expression plasmids, and TOP flash reporter plasmid containing a β‐catenin‐induced TCF reporter. 24-h post-transfection, CR was added at increasing concentrations (0 – 30 µM) and the cells were further cultured for 24 h. A top-flash activity assay of ß-catenin was conducted and (b) Western blot analysis with the indicated antibody was performed in parallel. […]

USP5 (Homo sapiens) = test: Deubiquitination assay, cleavage of GST-Ubiquitin-HA by USP5 (SDS-PAGE band intensity); type: biochemical
Sequence of USP5 (Homo sapiens) (P45974 2-858, other chains not shown): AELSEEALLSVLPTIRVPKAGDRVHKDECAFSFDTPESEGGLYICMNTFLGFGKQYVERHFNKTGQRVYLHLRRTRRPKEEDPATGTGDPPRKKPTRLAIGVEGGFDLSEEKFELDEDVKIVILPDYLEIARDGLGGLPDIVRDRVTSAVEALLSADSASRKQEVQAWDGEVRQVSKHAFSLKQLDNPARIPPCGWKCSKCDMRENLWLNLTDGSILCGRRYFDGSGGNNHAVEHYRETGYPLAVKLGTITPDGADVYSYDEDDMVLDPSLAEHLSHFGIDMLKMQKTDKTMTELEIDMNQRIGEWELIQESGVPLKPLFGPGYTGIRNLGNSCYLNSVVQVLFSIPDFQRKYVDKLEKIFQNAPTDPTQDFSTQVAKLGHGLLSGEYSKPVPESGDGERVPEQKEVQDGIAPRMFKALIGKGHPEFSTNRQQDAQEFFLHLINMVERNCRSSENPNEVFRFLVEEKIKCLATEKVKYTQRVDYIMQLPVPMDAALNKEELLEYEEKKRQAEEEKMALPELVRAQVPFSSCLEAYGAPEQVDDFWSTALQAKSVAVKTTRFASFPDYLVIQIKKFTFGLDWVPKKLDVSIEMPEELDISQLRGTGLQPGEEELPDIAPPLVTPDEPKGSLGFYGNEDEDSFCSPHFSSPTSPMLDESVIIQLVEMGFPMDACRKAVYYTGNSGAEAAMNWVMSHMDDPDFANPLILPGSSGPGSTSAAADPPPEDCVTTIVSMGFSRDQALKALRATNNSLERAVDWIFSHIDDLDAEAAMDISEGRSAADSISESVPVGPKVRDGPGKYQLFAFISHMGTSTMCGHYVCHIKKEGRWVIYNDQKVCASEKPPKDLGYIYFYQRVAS
Description: For in vitro ubiquitination assays, 500 µM of ubiquitin was used for each ubiquitination reaction as described previously, in the absence or presence of 50–500 µM of CR. […] The generation of GST-ubiquitin from GST-Ubiquitin-HA as the mobility shifts were analyzed on 12.5% SDS-PAGE visualized by Coomassie blue staining. Band intensities were quantified by ImageJ [55] and used to generate the IC50 curves (log inhibitor vs. normalized response with variable slope) by GraphPad Prism version 6.0 for Windows (GraphPad Software, San Diego, CA, USA, www.graphpad.com).

SMILES: Nc1c(/N=N/c2ccc(-c3ccc(/N=N/c4cc(S(=O)(=O)O)c5ccccc5c4N)cc3)cc2)cc(S(=O)(=O)O)c2ccccc12 [CR, Congo red]
- Effect on caspase activity of Dox-treated H1299 cells (H1299 cells [1]): Enhanced caspase activity
- Effect on Dox-induced cell death, H1299 (H1299 cells [2]): significantly enhanced Dox-induced cell death
- Effect on cell viability, compound alone (H1299 cells [3]; H1299, CR 0.0–50.0 µM, 24 h): does not affect
- None-toxicity concentration (H1299 cells [3]; determined by cytotoxicity assays): 10 µM
- Effect on USP4-enhanced β-catenin transcriptional activity (TOP flash) (USP4): this enhancement was antagonized by CR treatment
- IC50 (USP5 (Homo sapiens)): 13.4 ± 2.64 µM
